Experimental data from publication PMC7265429, “Characterization of a new small-molecule inhibitor of HDAC6 in glioblastoma” (Cell Death & Disease, 2020).

Tested on: GNS166 cells
Experiment: Microarray whole-transcriptome gene expression analysis
Assay type: cell-based, human
Procedure: Whole-transcriptome analysis was performed from 300 ng of RNA using HuGene-2_0-st-v1 expression array (Affymetrix), which covers 48,226 transcripts. Raw data were first checked for quality purposes through the Affymetrix® Expression Console™ Software v1.4.1 and TAC software v4.0. Then, data were normalized using the Robust Multi-array Average (RMA) and analyzed by Limma tool. Probesets with FDR-corrected p-values smaller than 0.05 were selected. Functional enrichment on Gene Ontology (GO) biological processes was performed on a smaller subset of the differentially expressed genes (corrected p-value < 0.001) by means of Broad Institute GSEA. […] The data that support this study have been deposited in NCBI´s Gene Expression Omnibus and are accessible through GEO series accession number GSE143887.

O=C(CCCCCCC(=O)Nc1ccccc1)NO [SAHA, Suberoylanilide hydroxamic acid]
logFC LIPA (5 µM SAHA vs DMSO, transcript TC1000012577.hg.1): 1.686 | logFC ARNTL (5 µM SAHA vs DMSO, transcript TC1100006899.hg.1): 1.497 | logFC C11orf74 (5 µM SAHA vs DMSO, transcript TC1100007307.hg.1): 1.1776 | logFC FAM111B (5 µM SAHA vs DMSO, transcript TC1100007727.hg.1): 1.402 | logFC CYP2R1 (5 µM SAHA vs DMSO, transcript TC1100010185.hg.1): 1.194 | logFC SESN3 (5 µM SAHA vs DMSO, transcript TC1100012019.hg.1): 1.415 | logFC MMP12 (5 µM SAHA vs DMSO, transcript TC1100012134.hg.1): 1.855 | logFC BIRC3 (5 µM SAHA vs DMSO, transcript TC1100013087.hg.1): 2.344 | logFC CCND2 (5 µM SAHA vs DMSO, transcript TC1200006555.hg.1): 1.786 | logFC GPRC5A (5 µM SAHA vs DMSO, transcript TC1200006896.hg.1): 1.771 | logFC STK38L (5 µM SAHA vs DMSO, transcript TC1200007146.hg.1): 1.792 | logFC LRP1 (5 µM SAHA vs DMSO, transcript TC1200007861.hg.1): 1.377 | logFC TCP11L2 (5 µM SAHA vs DMSO, transcript TC1200008726.hg.1): 1.788 | logFC SLC2A3 (5 µM SAHA vs DMSO, transcript TC1200009800.hg.1): 1.712 | logFC ABCD2 (5 µM SAHA vs DMSO, transcript TC1200010413.hg.1): 2.708 | logFC NELL2 (5 µM SAHA vs DMSO, transcript TC1200010490.hg.1): 2.463 | logFC FAIM2 (5 µM SAHA vs DMSO, transcript TC1200010642.hg.1): 1.773 | logFC AGAP2 (5 µM SAHA vs DMSO, transcript TC1200010976.hg.1): 1.559 | logFC KITLG (5 µM SAHA vs DMSO, transcript TC1200011460.hg.1): 1.767 | logFC LUM (5 µM SAHA vs DMSO, transcript TC1200011495.hg.1): 3.868 | logFC FGD6 (5 µM SAHA vs DMSO, transcript TC1200011574.hg.1): 1.639 | logFC MGST1 (5 µM SAHA vs DMSO, transcript TC1200012597.hg.1): 1.82 | logFC CCNA1 (5 µM SAHA vs DMSO, transcript TC1300006879.hg.1): 1.421 | logFC SERTM1 (5 µM SAHA vs DMSO, transcript TC1300006883.hg.1): 2.721 | logFC NDFIP2 (5 µM SAHA vs DMSO, transcript TC1300007592.hg.1): 1.353 | logFC CLDN10 (5 µM SAHA vs DMSO, transcript TC1300007752.hg.1): 1.556 | logFC RAP2A (5 µM SAHA vs DMSO, transcript TC1300007780.hg.1): 1.182 | logFC SLITRK6 (5 µM SAHA vs DMSO, transcript TC1300009394.hg.1): 2.414 | logFC KDELC1 (5 µM SAHA vs DMSO, transcript TC1300009674.hg.1): 1.5525 | logFC HSPA2 (5 µM SAHA vs DMSO, transcript TC1400007443.hg.1): 3.285 | logFC PPP4R4 (5 µM SAHA vs DMSO, transcript TC1400008058.hg.1): 2.48 | logFC TXNDC16 (5 µM SAHA vs DMSO, transcript TC1400009184.hg.1): 1.763 | logFC EGLN3 (5 µM SAHA vs DMSO, transcript TC1400010730.hg.1): 2.2444 | logFC CKMT1B (5 µM SAHA vs DMSO, transcript TC1500007062.hg.1): 2.569 | logFC CKMT1A (5 µM SAHA vs DMSO, transcript TC1500007067.hg.1): 3.452 | logFC IQCH (5 µM SAHA vs DMSO, transcript TC1500007640.hg.1): 1.591 | logFC ARRDC4 (5 µM SAHA vs DMSO, transcript TC1500008470.hg.1): 1.5 | logFC GCOM1 (5 µM SAHA vs DMSO, transcript TC1500010744.hg.1): 1.317 | logFC ATP1B2 (5 µM SAHA vs DMSO, transcript TC1700006763.hg.1): 3.1227 | logFC TMEM107 (5 µM SAHA vs DMSO, transcript TC1700009676.hg.1): 1.351 | logFC CORO6 (5 µM SAHA vs DMSO, transcript TC1700010252.hg.1): 1.546 | logFC C1QL1 (5 µM SAHA vs DMSO, transcript TC1700010856.hg.1): 1.605 | logFC TTLL6 (5 µM SAHA vs DMSO, transcript TC1700011007.hg.1): 1.858 | logFC (5 µM SAHA vs DMSO, transcript TC1700011261.hg.1): 1.393 | logFC TMEM241 (5 µM SAHA vs DMSO, transcript TC1800008281.hg.1): 1.807 | logFC REEP6 (5 µM SAHA vs DMSO, transcript TC1900006537.hg.1): 1.987 | logFC INAFM1 (5 µM SAHA vs DMSO, transcript TC1900008416.hg.1): 2.5078 | logFC PRKCG (5 µM SAHA vs DMSO, transcript TC1900008825.hg.1): 1.503 | logFC RFPL4A (5 µM SAHA vs DMSO, transcript TC1900008931.hg.1): 3.505 | logFC RFPL4AL1 (5 µM SAHA vs DMSO, transcript TC1900008932.hg.1): 2.766 | logFC KCNC3 (5 µM SAHA vs DMSO, transcript TC1900011194.hg.1): 1.754 | logFC FXYD7 (5 µM SAHA vs DMSO, transcript TC1900011710.hg.1): 2.141 | logFC RTBDN (5 µM SAHA vs DMSO, transcript TC1900011892.hg.1): 2.027 | logFC RNF24 (5 µM SAHA vs DMSO, transcript TC2000008242.hg.1): 1.55 | logFC TASP1 (5 µM SAHA vs DMSO, transcript TC2000008436.hg.1): 1.327 | logFC FLRT3 (5 µM SAHA vs DMSO, transcript TC2000008445.hg.1): 2.943 | logFC CYP24A1 (5 µM SAHA vs DMSO, transcript TC2000009522.hg.1): 1.58 | logFC LCA5L (5 µM SAHA vs DMSO, transcript TC2100008171.hg.1): 1.839 | logFC H1F0 (5 µM SAHA vs DMSO, transcript TC2200007318.hg.1): 1.771 | logFC, unannotated transcript (DMSO vs SAHA, downregulated, transcript 23064072): -1.45 | logFC, unannotated transcript (DMSO vs SAHA, downregulated, transcript 23064958): -1.242 | logFC, unannotated transcript (DMSO vs SAHA, downregulated, transcript 23066344): -2.142 | logFC, unannotated transcript (DMSO vs SAHA, downregulated, transcript 23066350): -1.951 | logFC, unannotated transcript (DMSO vs SAHA, downregulated, transcript 23066369): -2.142 | logFC, unannotated transcript (DMSO vs SAHA, downregulated, transcript 23066376): -1.488 | logFC, unannotated transcript (DMSO vs SAHA, downregulated, transcript 23066377): -1.951 | logFC, unannotated transcript (DMSO vs SAHA, downregulated, transcript 23068519): -1.54 | logFC, unannotated transcript (DMSO vs SAHA, downregulated, transcript 23071518): -1.2407 | logFC, unannotated transcript (DMSO vs SAHA, downregulated, transcript 23074026): -1.4 | logFC, unannotated transcript (DMSO vs SAHA, downregulated, transcript 23074907): -1.601 | logFC, unannotated transcript (DMSO vs SAHA, downregulated, transcript 23075457): -1.338 | logFC, unannotated transcript (DMSO vs SAHA, downregulated, transcript 23075879): -1.002 | logFC, unannotated transcript (DMSO vs SAHA, downregulated, transcript 23076022): -1.002 | logFC, unannotated transcript (DMSO vs SAHA, downregulated, transcript 23076173): -1.06 | logFC, unannotated transcript (DMSO vs SAHA, downregulated, transcript HTA2-pos-3662482_st): -0.977 | logFC, unannotated transcript (DMSO vs SAHA, downregulated, transcript HTA2-pos-3671550_st): -1.877 | logFC, unannotated transcript (DMSO vs SAHA, downregulated, transcript HTA2-pos-3671554_st): -1.443 | logFC, unannotated transcript (DMSO vs SAHA, downregulated, transcript HTA2-pos-PSR17008077.hg.1): -1.062 | logFC, unannotated transcript (DMSO vs SAHA, downregulated, transcript HTA2-pos-PSR17008082.hg.1): -1.0258 | logFC, unannotated transcript (DMSO vs SAHA, downregulated, transcript HTA2-pos-PSR17013958.hg.1): -1.428 | logFC ARAF (DMSO vs SAHA, downregulated, transcript TC0X00007148.hg.1): -1.073 | logFC RBM3 (DMSO vs SAHA, downregulated, transcript TC0X00007195.hg.1): -1.375 | logFC SUV39H1 (DMSO vs SAHA, downregulated, transcript TC0X00007200.hg.1): -1.395 | logFC PLP2 (DMSO vs SAHA, downregulated, transcript TC0X00007222.hg.1): -1.034 | logFC PBDC1 (DMSO vs SAHA, downregulated, transcript TC0X00007686.hg.1): -1.452 | logFC MID2 (DMSO vs SAHA, downregulated, transcript TC0X00008078.hg.1): -1.792 | logFC HMGB3 (DMSO vs SAHA, downregulated, transcript TC0X00008724.hg.1): -1.132 | logFC TAF9B (DMSO vs SAHA, downregulated, transcript TC0X00010136.hg.1): -1.5452 | logFC STS (DMSO vs SAHA, downregulated, transcript TC0X00011259.hg.1): -1.335
